# Patent US20160184271A1, “Amino Acid Composition for Use in the Treatment of a PDD” (N.V. Nutricia, priority 2013, published 2016)
# Target: mTOR (Homo sapiens, UniProt P42345)
# Experiment: in vitro effect of amino acids on mTOR
# Format: biochemical
# Conditions: 1 mM rapamycin compared with 10 mM lysine
row,concentration having a comparable inhibitory effect on mTor,SMILES
1,10 mM,NCCCC[C@H](N)C(=O)O [lysine]

# Same assay, conditions: in vitro
row,SMILES,effect on mTOR (inhibitory or activating)
1,"N[C@@H](Cc1ccccc1)C(=O)O [Phenylalanine, phenylalanine]",inhibitory effect of mTOR
2,NCC(=O)O [glycine],inhibitory effect of mTOR
3,CC[C@H](C)[C@H](N)C(=O)O [isoleucine],mTOR activating effect

# The remaining lines, values ahead:
row,effect on mTOR (inhibitory or activating),SMILES
1,mTOR activating effect,CC(C)C[C@H](N)C(=O)O [leucine]
2,mTOR activating effect,CC(C)[C@H](N)C(=O)O [valine]
